Test results taken from patent US10556907B2 (AbbVie Inc., priority 2015, dated 2020).
Structures can show the parent of a compound that is named as a salt.

Assays:
Test in all cases: Method 1: intracellular Ca2+ release (FLIPR, Calcium 5) in recombinant CHO-K1 cells
Type in all cases: cell-based
[1] = target: T1, human S1PR1 receptor (Homo sapiens, UniProt P21453); conditions: (1): determined with method 1; read-out: S1P1 EC50
T1 construct: host or cells: CHO-K1
Procedure, shortened: (§1)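 Agonist EC50; CHO-K1 + Gq/i5 + aequorin; Calcium 5 dye 1 h 37 °C, 45 min RT; serial-dilution compound add; FLIPR read; normalized to phospho-fingolimod.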

[2] = target: T2, human S1PR4 receptor (Homo sapiens, UniProt O95977); conditions: (1): determined with method 1; read-out: S1P4 EC50
T2 construct: host or cells: CHO-K1
T2 sequence (O95977 1-384): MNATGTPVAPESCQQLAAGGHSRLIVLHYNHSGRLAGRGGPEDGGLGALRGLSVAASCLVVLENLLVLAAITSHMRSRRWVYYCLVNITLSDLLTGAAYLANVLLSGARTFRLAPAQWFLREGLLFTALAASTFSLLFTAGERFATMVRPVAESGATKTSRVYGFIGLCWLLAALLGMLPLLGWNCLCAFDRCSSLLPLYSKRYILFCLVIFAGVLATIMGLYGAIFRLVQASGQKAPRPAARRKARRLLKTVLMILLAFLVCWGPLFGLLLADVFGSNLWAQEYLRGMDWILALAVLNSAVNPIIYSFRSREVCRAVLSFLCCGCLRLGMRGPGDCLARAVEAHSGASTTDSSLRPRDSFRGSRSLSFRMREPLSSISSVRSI
Procedure, shortened: as §1

[3] = target: T3, human S1PR5 receptor (Homo sapiens, UniProt Q9H228); conditions: agonist potency, determined with method 1 (symbols A-D); read-out: S1P5 EC50 range
T3 construct: host or cells: CHO-K1
Procedure, shortened: as §1

T1 sequence (P21453 whole entry): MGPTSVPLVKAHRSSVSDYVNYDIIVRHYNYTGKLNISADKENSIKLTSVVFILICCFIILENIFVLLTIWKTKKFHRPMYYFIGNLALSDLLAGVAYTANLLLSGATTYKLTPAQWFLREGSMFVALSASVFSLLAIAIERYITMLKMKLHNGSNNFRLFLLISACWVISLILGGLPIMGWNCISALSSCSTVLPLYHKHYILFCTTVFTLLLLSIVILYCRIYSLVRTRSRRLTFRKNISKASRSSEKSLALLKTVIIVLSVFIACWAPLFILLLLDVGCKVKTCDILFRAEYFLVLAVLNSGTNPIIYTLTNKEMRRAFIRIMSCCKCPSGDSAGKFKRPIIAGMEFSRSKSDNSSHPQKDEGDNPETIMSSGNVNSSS
T3 sequence (Q9H228 whole entry): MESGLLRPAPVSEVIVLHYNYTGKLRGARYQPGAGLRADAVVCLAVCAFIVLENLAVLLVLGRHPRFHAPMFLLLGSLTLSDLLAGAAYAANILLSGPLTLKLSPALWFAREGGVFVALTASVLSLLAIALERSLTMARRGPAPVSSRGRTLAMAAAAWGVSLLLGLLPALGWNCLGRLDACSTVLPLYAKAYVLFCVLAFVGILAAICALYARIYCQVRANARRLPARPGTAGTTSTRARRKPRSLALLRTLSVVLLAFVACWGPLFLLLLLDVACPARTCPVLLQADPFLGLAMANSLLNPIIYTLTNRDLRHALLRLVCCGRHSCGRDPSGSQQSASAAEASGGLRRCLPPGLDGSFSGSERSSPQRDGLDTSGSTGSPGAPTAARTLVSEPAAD

EC50 [1] [µM] | EC50 [2] [µM] | EC50 [3] [µM] | SMILES
> 1 | > 1 | 0.1 to 1 | O=C(O)CN1CCc2nc(-c3ccc(OCc4ccccc4)cc3)ncc2C1 [Compound 25, 2-(2-(4-(benzyloxy)phenyl)-7,8-dihydropyrido[4,3-d]pyrimidin-6(5H)-yl)acetic acid]
> 1 | < 1 | 0.1 to 1 | Cc1cc(-c2ncc3c(n2)CCN(CC(C)CC(=O)O)C3)ccc1OCc1c(F)cccc1F (stereo not drawn) [Compound 316, 4-[2-[4-[(2,6-difluorophenyl)methoxy]-3-methyl-phenyl]-7,8-dihydro-5H-pyrido[4,3-d]pyrimidin-6-yl]-3-methyl-butanoic acid 2,2,2-trifluoroacetic acid salt]
> 1 | > 1 | 0.1 to 1 | Cc1ccc(COc2ccc(-c3ncc4c(n3)CCN(CC(C)CC(=O)O)C4)c(F)c2)cc1 (stereo not drawn) [Compound 307, 4-[2-[2-fluoro-4-(p-tolylmethoxy)phenyl]-7,8-dihydro-5H-pyrido[4,3-d]pyrimidin-6-yl]-3-methyl-butanoic acid 2,2,2-trifluoroacetic acid salt]
> 1 | > 1 | 0.1 to 1 | CC(C)(CC(=O)O)CN1CCc2nc(-c3ccc(OCc4ccc(Cl)c(Cl)c4)cc3)ncc2C1 [Compound 217, 4-(2-(4-((3,4-dichlorobenzyl)oxy)phenyl)-7,8-dihydropyrido[4,3-d]pyrimidin-6(5H)-yl)-3,3-dimethylbutanoic acid]
> 1 | > 1 | 0.1 to 1 | CCc1cccc(Cl)c1COc1nc2c(cc1F)CN(C1CC(C(=O)O)C1)CC2 (stereo not drawn) [Compound 183, 3-(2-((2-chloro-6-ethylbenzyl)oxy)-3-fluoro-7,8-dihydro-1,6-naphthyridin-6(5H)-yl)cyclobutanecarboxylic acid]
> 1 | > 1 | 1 to 10 | CC(CC(=O)O)CN1CCc2nc(-c3ccc(C4CC4c4ccc(Cl)cc4)cc3)ncc2C1 (stereo not drawn) [Compound 323, 4-(2-(4-(2-(4-chlorophenyl)cyclopropyl)phenyl)-7,8-dihydropyrido[4,3-d]pyrimidin-6(5H)-yl)-3-methylbutanoic acid]
> 1 | > 1 | 0.1 to 1 | Cc1cc(-c2ncc3c(n2)CCN(C[C@H](C)CC(=O)O)C3)ccc1OCc1ccccc1 [Compound 319, (R)-4-(2-(4-(benzyloxy)-3-methylphenyl)-7,8-dihydropyrido[4,3-d]pyrimidin-6(5H)-yl)-3-methylbutanoic acid]
> 1 | > 1 | 1 to 10 | CC(C(=O)O)N1CCc2nc(-c3ccc(OCc4ccccc4)cc3)ncc2C1 (stereo not drawn) [Compound 322, 2-(2-(4-(benzyloxy)phenyl)-7,8-dihydropyrido[4,3-d]pyrimidin-6(5H)-yl)propanoic acid]
> 1 | > 1 | 0.01 to 0.1 | Cc1cc(-c2ncc3c(n2)CCN(CC(C)CC(=O)O)C3)ccc1OCc1ccc(F)cc1 (stereo not drawn) [Compound 269, 4-[2-[4-[(4-fluorophenyl)methoxy]-3-methyl-phenyl]-7,8-dihydro-5H-pyrido[4,3-d]pyrimidin-6-yl]-3-methyl-butanoic acid 2,2,2-trifluoroacetic acid salt]
> 1 | > 1 | 0.1 to 1 | CC(CC(=O)O)CN1CCc2nc(-c3ccc(OCc4cccc(F)c4)cc3F)ncc2C1 (stereo not drawn) [Compound 289, 4-[2-[2-fluoro-4-[(3-fluorophenyl)methoxy]phenyl]-7,8-dihydro-5H-pyrido[4,3-d]pyrimidin-6-yl]-3-methyl-butanoic acid 2,2,2-trifluoroacetic acid salt]
> 1 | > 1 | 0.01 to 0.1 | Cc1cc(-c2ncc3c(n2)CCN(CC(C)CC(=O)O)C3)ccc1OCc1ccccc1Cl (stereo not drawn) [Compound 262, 4-(2-(4-((2-chlorobenzyl)oxy)-3-methylphenyl)-7,8-dihydropyrido[4,3-d]pyrimidin-6(5H)-yl)-3-methylbutanoic acid]

The next lines start with the compound.

SMILES | EC50 [1] [µM] | EC50 [2] [µM] | EC50 [3] [µM]
CC(CC(=O)O)CN1CCc2nc(-c3ccc(OCc4cccc(Cl)c4)cc3)cnc2C1 (stereo not drawn) [Compound 209, 4-(2-(4-((3-chlorobenzyl)oxy)phenyl)-7,8-dihydropyrido[3,4-b]pyrazin-6(5H)-yl)-3-methylbutanoic acid] | > 1 | > 1 | < 0.01
O=C(O)C1CC(N2CCc3nc(-c4ccc(OCc5ccc(Cl)cc5)cc4)ncc3C2)C1 (stereo not drawn) [Compound 287, 3-(2-(4-((4-chlorobenzyl)oxy)phenyl)-7,8-dihydropyrido[4,3-d]pyrimidin-6(5H)-yl)cyclobutanecarboxylic acid] | > 1 | > 1 | 0.1 to 1
Cc1cc(-c2ncc3c(n2)CCN(C[C@@H](C)CC(=O)O)C3)ccc1OCc1ccc(Cl)cc1 [Compound 270, (S)-4-(2-(4-((4-chlorobenzyl)oxy)-3-methylphenyl)-7,8-dihydropyrido[4,3-d]pyrimidin-6(5H)-yl)-3-methylbutanoic acid] | > 1 | > 1 | 0.01 to 0.1
Cc1cc(-c2ncc3c(n2)CCN(CC(C)CC(=O)O)C3)ccc1OCc1cccc(C(F)(F)F)c1 (stereo not drawn) [Compound 302, 3-methyl-4-[2-[3-methyl-4-[[3-(trifluoromethyl)phenyl]methoxy]phenyl]-7,8-dihydro-5H-pyrido[4,3-d]pyrimidin-6-yl]butanoic acid 2,2,2-trifluoroacetic acid salt] | > 1 | > 1 | 0.1 to 1
CC(C(=O)O)N1CCc2nc(-c3ccc(OCc4cccc(Cl)c4)cc3)ncc2C1 (stereo not drawn) [Compound 317, 2-(2-(4-((3-chlorobenzyl)oxy)phenyl)-7,8-dihydropyrido[4,3-d]pyrimidin-6(5H)-yl)propanoic acid] | > 1 | > 1 | 0.1 to 1
CC(CC(=O)O)CN1CCc2nc(-c3ccc(CCc4ccc(Cl)cc4)cc3F)ncc2C1 (stereo not drawn) [Compound 255, 4-(2-(4-(4-chlorophenethyl)-2-fluorophenyl)-7,8-dihydropyrido[4,3-d]pyrimidin-6(5H)-yl)-3-methylbutanoic acid] | > 1 | > 1 | < 0.01
CCc1ccccc1COc1ccc(-c2ncc3c(n2)CCN(CC(C)CC(=O)O)C3)cc1C (stereo not drawn) [Compound 308, 4-[2-[4-[(2-ethylphenyl)methoxy]-3-methyl-phenyl]-7,8-dihydro-5H-pyrido[4,3-d]pyrimidin-6-yl]-3-methyl-butanoic acid 2,2,2-trifluoroacetic acid salt] | > 1 | < 1 | 0.1 to 1
O=C(O)CN1CCc2nc(-c3ccc(OCc4cccc(F)c4)cc3)ncc2C1 [Compound 27, 2-(2-(4-((3-fluorobenzyl)oxy)phenyl)-7,8-dihydropyrido[4,3-d]pyrimidin-6(5H)-yl)acetic acid] | > 1 | > 1 | 0.01 to 0.1
Cc1ccccc1COc1ccc(-c2ncc3c(n2)CCN(C[C@H](C)CC(=O)O)C3)cc1C [Compound 303] | > 1 | < 1 | 0.1 to 1
